Experimental data published in patent US20260245655A1, “METHODS FOR DETERMINING DRUG CANDIDATES” (MOSAIQUES DIAGNOSTICS AND THERAPEUTICS AG, priority 2023, published 2026).
“Also recorded” adds a separate entry of the source.

Experiments:
[1] = tested on: BC cell lines: non-muscle invasive (RT112) and muscle invasive (T24, BFTC905, HT1376) cells; assay: in vitro screening of drug candidates on growth/proliferation of BC cell lines; format: cell-based; settings: for proliferation rate of the BC cells (dose response curves): FIG. 2; for cell growth of BC cells: in vitro, panel of BC cell lines RT112, T24, BFTC905, HT1376
Method: The impact of the drug candidates onto the malignant phenotype of BC cells was assessed in vitro in a panel of multi-origin BC cell lines representing different stages during disease progression. These included non-muscle invasive (RT112) and muscle invasive (T24, BFTC905, HT1376) cells.
Accordingly, these compounds were selected for further investigation, here providing the response curves for four different BC cell lines. Representative response curves of the seven compounds are presented in FIG. 2, along with the respective IC50s. A clear impact was observed on the proliferation of the BC cells for all seven compounds.
FIG. 2. The dose response curves of cephaeline (i-ii), exemestane (iii-iv) and 1,4 chrysenequinone (v-vi) in the BC cell lines RT112, T24, HT1376 and BFTC905. The dose response curves of fluvoxamine (vii), amiodarone (viii), isradipine (ix) and amodiaquine (x) in the RT112 cells are also provided.

BFTC905 xenograft = BFTC905 xenograft mouse model; format: in vivo, NOD/SCID male mice; settings: start three days after cell injection, observed at least 17 days, vs DMSO control
Method: In vivo testing of exemestane, cephaeline and 1,4 chrysenequinone was performed in xenograft mouse models. Particularly, the model was established after injecting […] BFTC905 cells subcutaneously into the tail base of NOD/SCID male mice. Male mice were selected for these experiments since males are more prone to develop BC. The treatments started three days after the injections of the cancer cells. The treatment scheme was 30 mg/kg/every 3rd day for exemestane, 5 mg/kg/daily for cephaeline and 5 mg/kg/daily for 1,4 chrysenequinone. As controls were used animals injected with DMSO diluted in PBS (at a final concentration similar to the one of the compounds).
FIG. 3. The impact of cephaeline, exemestane and 1,4 chrysenequinone in vivo in BFTC905 xenograft mouse models.

[2] = BC cell lines RT112, T24, HT1376 and BFTC905

SMILES | proliferation rate of the BC cells (dose response curves) [1, 2] | cell growth of BC cells [1] | impact on tumor establishment or growth (BFTC905 xenograft; 5 mg/kg/daily) | proliferation rate of the BC cells (dose response curves) ([1]; RT112 cells) | impact on tumor establishment or growth (BFTC905 xenograft; 30 mg/kg/every 3rd day)
O=C1C=CC(=O)c2c1ccc1c2ccc2ccccc21 [1,4-chrysenequinone] | significantly decreased the proliferation rate | prevented cell growth at relatively low concentrations | no significant impact on tumour growth |  | 
CCCCc1oc2ccccc2c1C(=O)c1cc(I)c(OCCN(CC)CC)c(I)c1 [amiodarone] |  | prevented cell growth at relatively low concentrations |  | significantly decreased the proliferation rate | 
CCN(CC)Cc1cc(Nc2ccnc3cc(Cl)ccc23)ccc1O [amodiaquine] |  | prevented cell growth at relatively low concentrations |  | significantly decreased the proliferation rate | 
C=C1C[C@@H]2[C@H](CC[C@]3(C)C(=O)CC[C@@H]23)[C@@]2(C)C=CC(=O)C=C12 [exemestane] | significantly decreased the proliferation rate | prevented cell growth at relatively low concentrations |  |  | clear impact on tumor establishment or growth; also recorded: significantly decreased tumor establishment or growth
COCCCC/C(=N\OCCN)c1ccc(C(F)(F)F)cc1 [fluvoxamine] |  | prevented cell growth at relatively low concentrations |  | significantly decreased the proliferation rate | 
COC(=O)C1=C(C)NC(C)=C(C(=O)OC(C)C)C1c1cccc2nonc12 (centres unmarked) [isradipine] |  | prevented cell growth at relatively low concentrations |  | significantly decreased the proliferation rate | 
